Structures are written as SMILES. Where “and” joins values, the source holds several entries; their conditions need not be identical. Equal entries are not always repeated.

The data set is described as follows: microsomal stability. The format is in vitro ADME, Sprague-Dawley rat. To be noted: rat liver microsomes, NADPH. Here is the method: First, Sprague-Dawley rat liver microsomes (0.5 mg/mL, Sigma-Aldrich, No. M9066) was incubated with PBS (50 mM, pH=7.4) in a reaction tube at 37° C. for 3 min. To the reaction tube were added the test compound (2 μM) and then cofactor, NADPH (1 mM), to start the reaction. The mixture was shaken in a water bath at 37° C. At different time points (0, 5, 10, 15, 30 min), aliquots (50 μL) were removed and added to 100 μl of cold acetonitrile with internal standard (25 μM) to quench the reaction. The precipitated material was by centrifugation (10,000×g, 10 min, 4° C.), and the supernatant was analyzed by RP-HPLC (Column: Phenomenex Luna© 5 μm, Cis, 100 Å, 250×4.6 mm). The RP-HPLC was carried out by using a 15-min gradient method: eluent A: 0.1% formic acid/H2O; eluent B: 0.1% formic acid/CH3CN; gradient: […]; 5% B to 95% B from 1 to 9 min, 95% B from 9 to 12 min, 95% to 5% B from 12 to 13 min, 5% B from 13 to 15 min; flow rate at 0.7 mL/min.
The in peak area ratio (test compound peak area at a time point/peak area at 0 min time point) was plotted against time and the gradient of the line was determined. Subsequently, the half-life (t1/2) was calculated as 0.693/k, where the elimination rate constant k equals to −gradient. V (μL/mg) was obtained as a ratio of volume of incubation […]/protein in the incubation (mg). Finally, the intrinsic clearance (CLint) (μL/min/mg protein) was calculated as V*0.693/t1/2.
For orientation: Liver microsomes are vesicles of endoplasmic reticulum, rich in cytochrome P450 enzymes.

Consider `[2H]C([2H])(F)Sc1cc(NC(=O)c2ccccn2)ccc1Cl` [Compound 15, N-(4-Chloro-3-((fluoromethyl-d2)thio)phenyl)picolinamide], for which the “The microsome stability t1/2” value was 57.258 min and 57.3 min.
